ChEMBL document CHEMBL4765377, “Design, synthesis, and evaluation of amphiphilic sofalcone derivatives as potent Gram-positive antibacterial agents” (Eur J Med Chem, 2020)
Converted amounts (≈) assume the structure as drawn.

Columns and labels:
[1] = Hemolytic activity in rabbit RBC after 60 mins; type: ADME, cell-based, Oryctolagus cuniculus, Erythrocyte; conditions: rabbit red blood cells (erythrocytes)
Escherichia coli = assay: Antibacterial activity against Escherichia coli ATCC 25922 assessed as reduction in bacterial growth after 24 hrs by CLSI based broth micro dilution method; type: functional
Staphylococcus aureus [2] = assay: Antibacterial activity against Staphylococcus aureus ATCC 29213 assessed as reduction in bacterial growth after 24 hrs by CLSI based broth micro dilution method; type: functional
Staphylococcus aureus [3] = assay: Antibacterial activity against methicillin-resistant Staphylococcus aureus N315 assessed as reduction in bacterial growth after 24 hrs by CLSI based broth micro dilution method; type: functional
Staphylococcus aureus [4] = assay: Antibacterial activity against methicillin-resistant Staphylococcus aureus NCTC10442 assessed as reduction in bacterial growth after 24 hrs by CLSI based broth micro dilution method; type: functional

What does the source list for `COC(=O)[C@H](Cc1c[nH]cn1)NC(=O)COc1cc(OCC=C(C)C)ccc1C(=O)/C=C/c1ccc(OCC=C(C)C)cc1`?
HC50 at 1 h [1]: > 200 µg/mL; MIC (Escherichia coli): > 50 µg/mL; MIC (Staphylococcus aureus [2]): > 50 µg/mL

Which HC50 at 1 h [1] does the source give for `CCCNC(=O)COc1cc(OCC=C(C)C)ccc1C(=O)/C=C/c1ccc(OCC=C(C)C)cc1` here?
Its HC50 at 1 h is greater than 200 µg/mL.

What about the MIC (Staphylococcus aureus [3]) of the same molecule?
The MIC was greater than 50 µg/mL.

What about the MIC (Escherichia coli) of the same molecule?
The MIC was greater than 100 µg/mL.

And the MIC (Staphylococcus aureus [4])?
The MIC was greater than 50 µg/mL.

And the MIC (Staphylococcus aureus [2])?
Its MIC is greater than 50 µg/mL.

Which HC50 at 1 h [1] does the source give for `CC(C)=CCOc1ccc(/C=C/C(=O)c2ccc(OCC=C(C)C)cc2OCC(=O)N[C@@H](CCCNC(=N)N)C(=O)NCCCN(C)C)cc1` here?
Its HC50 at 1 h is 181 µg/mL.

And the MIC (Escherichia coli)?
Its MIC is 25 µg/mL (≈ 36.2 µM).

For `COC(=O)[C@H](CCCNC(=N)N)NC(=O)[C@H](CCCNC(=N)N)NC(=O)COc1cc(OCC=C(C)C)ccc1C(=O)/C=C/c1ccc(OCC=C(C)C)cc1`, which HC50 at 1 h [1] is on record?
Its HC50 at 1 h is 120 µg/mL.

And the MIC (Staphylococcus aureus [3])?
Its MIC is 3.13 µg/mL (≈ 4.03 µM).

And the MIC (Escherichia coli)?
Its MIC is 12.5 µg/mL (≈ 16.1 µM).

What about the MIC (Staphylococcus aureus [4]) of the same molecule?
Its MIC is 3.13 µg/mL (≈ 4.03 µM).

What about the MIC (Staphylococcus aureus [2]) of the same molecule?
The MIC was 3.13 µg/mL (≈ 4.03 µM).

With `CCN(CC)CCCNC(=O)COc1cc(OCC=C(C)C)ccc1C(=O)/C=C/c1ccc(OCC=C(C)C)cc1` as the molecule, how does the HC50 at 1 h [1] read?
The HC50 at 1 h was 65.7 µg/mL.

What about the MIC (Escherichia coli) of the same molecule?
Its MIC is greater than 50 µg/mL.

What about the MIC (Staphylococcus aureus [4]) of the same molecule?
Its MIC is 6.25 µg/mL (≈ 11.1 µM).

And the MIC (Staphylococcus aureus [2])?
The MIC was 6.25 µg/mL (≈ 11.1 µM).

What does the source list for `CC(C)=CCOc1ccc(/C=C/C(=O)c2ccc(OCC=C(C)C)cc2OCC(=O)O)cc1` [SOFALCONE]?
HC50 at 1 h [1]: > 200 µg/mL; MIC (Staphylococcus aureus [3]): 50 µg/mL (≈ 111 µM); MIC (Escherichia coli): > 50 µg/mL; MIC (Staphylococcus aureus [4]): > 50 µg/mL; MIC (Staphylococcus aureus [2]): > 50 µg/mL

With `CC(C)=CCOc1ccc(/C=C/C(=O)c2ccc(OCC=C(C)C)cc2OCC(=O)NCCCNC(=N)N)cc1` as the molecule, how does the HC50 at 1 h [1] read?
The HC50 at 1 h was 56.5 µg/mL.

What about the MIC (Staphylococcus aureus [3]) of the same molecule?
The MIC was 1.56 µg/mL (≈ 2.84 µM).

What about the MIC (Escherichia coli) of the same molecule?
The MIC was 25 µg/mL (≈ 45.6 µM).

What about the MIC (Staphylococcus aureus [4]) of the same molecule?
Its MIC is 1.56 µg/mL (≈ 2.84 µM).

And the MIC (Staphylococcus aureus [2])?
The MIC was 1.56 µg/mL (≈ 2.84 µM).

What does the source list for `CCCCN(CCCC)CCCNC(=O)COc1cc(OCC=C(C)C)ccc1C(=O)/C=C/c1ccc(OCC=C(C)C)cc1`?
HC50 at 1 h [1]: > 200 µg/mL; MIC (Staphylococcus aureus [3]): 6.25 µg/mL (≈ 10.1 µM); MIC (Escherichia coli): > 50 µg/mL; MIC (Staphylococcus aureus [4]): 6.25 µg/mL (≈ 10.1 µM); MIC (Staphylococcus aureus [2]): 12.5 µg/mL (≈ 20.2 µM)

For `COC(=O)[C@H](CCCNC(=N)N)NC(=O)COc1cc(OCC=C(C)C)ccc1C(=O)/C=C/c1ccc(OCC=C(C)C)cc1`, which HC50 at 1 h [1] is on record?
The HC50 at 1 h was 70 µg/mL.

What about the MIC (Staphylococcus aureus [3]) of the same molecule?
Its MIC is 1.56 µg/mL (≈ 2.51 µM).

And the MIC (Escherichia coli)?
Its MIC is 50 µg/mL (≈ 80.5 µM).

And the MIC (Staphylococcus aureus [4])?
Its MIC is 1.56 µg/mL (≈ 2.51 µM).

What about the MIC (Staphylococcus aureus [2]) of the same molecule?
Its MIC is 1.56 µg/mL (≈ 2.51 µM).

For `CC(C)=CCOc1ccc(/C=C/C(=O)c2ccc(OCC=C(C)C)cc2OCC(=O)NCCCN)cc1`, which HC50 at 1 h [1] is on record?
Its HC50 at 1 h is 47 µg/mL.

What about the MIC (Staphylococcus aureus [3]) of the same molecule?
The MIC was 1.56 µg/mL (≈ 3.08 µM).

And the MIC (Escherichia coli)?
Its MIC is 50 µg/mL (≈ 98.7 µM).

What about the MIC (Staphylococcus aureus [4]) of the same molecule?
The MIC was 3.13 µg/mL (≈ 6.18 µM).

What about the MIC (Staphylococcus aureus [2]) of the same molecule?
Its MIC is 3.13 µg/mL (≈ 6.18 µM).

Which HC50 at 1 h [1] does the source give for `CC(C)=CCOc1ccc(/C=C/C(=O)c2ccc(OCC=C(C)C)cc2OCC(=O)NCCCN2CCCC2)cc1` here?
The HC50 at 1 h was 53.4 µg/mL.

And the MIC (Staphylococcus aureus [3])?
Its MIC is 3.13 µg/mL (≈ 5.58 µM).

And the MIC (Escherichia coli)?
Its MIC is greater than 50 µg/mL.

What about the MIC (Staphylococcus aureus [4]) of the same molecule?
Its MIC is 6.25 µg/mL (≈ 11.1 µM).

What about the MIC (Staphylococcus aureus [2]) of the same molecule?
The MIC was 6.25 µg/mL (≈ 11.1 µM).

For `CC(C)=CCOc1ccc(/C=C/C(=O)c2ccc(OCC=C(C)C)cc2OCC(=O)NCCCN(C)C)cc1`, which HC50 at 1 h [1] is on record?
Its HC50 at 1 h is 78.2 µg/mL.

What about the MIC (Staphylococcus aureus [3]) of the same molecule?
The MIC was 12.5 µg/mL (≈ 23.4 µM).

What about the MIC (Escherichia coli) of the same molecule?
The MIC was greater than 50 µg/mL.

And the MIC (Staphylococcus aureus [4])?
The MIC was 12.5 µg/mL (≈ 23.4 µM).

And the MIC (Staphylococcus aureus [2])?
Its MIC is 12.5 µg/mL (≈ 23.4 µM).

Which HC50 at 1 h [1] does the source give for `CC(C)=CCOc1ccc(/C=C/C(=O)c2ccc(OCC=C(C)C)cc2OCC(=O)N[C@@H](CCCNC(=N)N)C(=O)NCCCN)cc1` here?
The HC50 at 1 h was 277 µg/mL.

And the MIC (Escherichia coli)?
Its MIC is 6.25 µg/mL (≈ 9.43 µM).

With `CC(C)=CCOc1ccc(/C=C/C(=O)c2ccc(OCC=C(C)C)cc2OCC(=O)NCCCN2CCN(C)CC2)cc1` as the molecule, how does the HC50 at 1 h [1] read?
Its HC50 at 1 h is 36.5 µg/mL.

And the MIC (Staphylococcus aureus [3])?
The MIC was 6.25 µg/mL (≈ 10.6 µM).

What about the MIC (Escherichia coli) of the same molecule?
The MIC was greater than 100 µg/mL.

What about the MIC (Staphylococcus aureus [4]) of the same molecule?
Its MIC is 6.25 µg/mL (≈ 10.6 µM).

And the MIC (Staphylococcus aureus [2])?
The MIC was 6.25 µg/mL (≈ 10.6 µM).

With `O=C(N[C@H](CO)[C@H](O)c1ccc([N+](=O)[O-])cc1)C(Cl)Cl` [CHLORAMPHENICOL] as the molecule, how does the MIC (Escherichia coli) read?
Its MIC is 3.13 µg/mL (≈ 9.69 µM).

With `CC(C)=CCOc1ccc(/C=C/C(=O)c2ccc(OCC=C(C)C)cc2OCC(=O)N[C@@H](CCCNC(=N)N)C(N)=O)cc1` as the molecule, how does the HC50 at 1 h [1] read?
The HC50 at 1 h was 78.7 µg/mL.

And the MIC (Staphylococcus aureus [3])?
The MIC was 1.56 µg/mL (≈ 2.58 µM).

What about the MIC (Escherichia coli) of the same molecule?
The MIC was 12.5 µg/mL (≈ 20.6 µM).

And the MIC (Staphylococcus aureus [4])?
The MIC was 3.13 µg/mL (≈ 5.17 µM).

And the MIC (Staphylococcus aureus [2])?
The MIC was 3.13 µg/mL (≈ 5.17 µM).
